From patent US20050107466A1, “Method of treating or reducing suicidal thoughts with escitalopram” (H. Lundbeck A/S, priority 2003, published 2005) come the findings set out here.

A short description of test [1]: randomised, double-blind, parallel-group clinical trial, 8 weeks; HAM-D and MADRS items of suicidal thoughts. Format: in vivo. Conditions: escitalopram daily dose of 10-20 mg compared with 40 mg citalopram; persons with major depression. The protocol: In brief, a clinical trial was designed as a randomised, double-blind, parallel-group trial comprising two different fixed escitalopram doses (10 mg and 20 mg per day) for eight weeks. A placebo-arm was included, as was an active comparator arm in terms of 40 mg citalopram per day. The persons fulfilled the following criteria: (a) DSM-IV (i) major depression with symptoms present for a minimum of 4 weeks; (b) minimum total score of 22 on the 10-item MADRS (Montgomery SA, Åsberg M., A new depression scale designed to be sensitive to change., Br. J. Psychiatry 1979, 134, 382-389) and a score of 2 or more on the HAM-D item (depressed mood) (Hamilton, M., Br. J. Soc. Clin. Psychol 1967, 6, 278-296). Persons who still fulfilled the MADRS and HAM-D criteria after 1-week, single-blind placebo lead-in were randomised to the double-blind treatment. Throughout the 8-week double-blind treatment period, persons assigned to placebo or escitalopram 10 mg daily received no adjustment of dosage. Persons in the escitalopram 20 mg daily group and in the citalopram group were titrated to their final dose of after 1 week of treatment at half of their assigned dose. […] Persons were evaluated at baseline (the end of the 1-week placebo lead-in) and after 1, 2, 4, 6, and 8 weeks. […]

A short description of test [2]: analysis of data from four clinical studies; suicidal thoughts (MADRS item 10). Type of test: in vivo, patients.

Regarding `CN(C)CCC[C@@]1(c2ccc(F)cc2)OCc2cc(C#N)ccc21` [escitalopram], in test [1], the reducing suicidal thoughts result is on record as “more effective”. The “overall effect on suicidal thoughts or suicidal ideation” value in test [2] (after one week of treatment with 10-20 mg escitalopram compared to placebo) is “significantly pronounced already after one week”. In addition, the “percentage of patients experiencing an increase in suicidal thoughts” value in test [2] (after one week of treatment, compared to patients treated with citalopram or placebo) is “significantly lower”. In addition, the “treatment of the group of patients having a score greater than or equal to 2 on item 10 on the MADRS depression scale” value in test [2] (compared to citalopram, results of four clinical studies) is “more much more effective”. In test [2] (general statement of the finding), the “alleviation of suicidal ideation” value is “early alleviation of suicidal ideation”.
